Consider 30 compounds from patent US12275719B2, “Small molecule inhibitors of galectin-3” (BRISTOL-MYERS SQUIBB COMPANY, priority 2019, dated 2025).

The experiment addresses His-tagged recombinant human Gal-3 (hGal-3) (Homo sapiens, UniProt P17931). Briefly: Gal-3 HTRF assay (hGal-3 / B-ASF binding inhibition). The procedure: ASSAY BUFFER Composition: 25 mM HEPES, 100 mM NaCl, 0.005% Tween 20, 0.05% BSA prepared in sterile water (all reagents from Sigma).
Positive Control: 100% DMSO (1 μL)+His-tagged hGal-3 (20 μL)+β-ASF (20 μL)+Anti-His Terbium Antibody (5 μL)+Strep d2 Antibody (5 μL).
Negative Control: 100% DMSO (1 μL)+His-tagged hGal-3 (20 μL)+Anti His Terbium Antibody (5 μL)+Strep d2 Aantibody (5 μL).
PROTOCOL: The Gal-3 assays were performed in 384 white Opti plates in three replicates at room temperature with gentle shaking at 250-300 rpm From the original stocks, […] working stock concentrations of His-tagged recombinant human Gal-3 (hGal-3) and that of B-ASF were prepared. From the working stock, 20 μL of hGal-3 (15 nM) and 20 μL B-ASF (15 nM) were added to the plates. In Negative Control, only hGal-3 was added. A concentration range of 50× working stocks were prepared for the compounds in 100% DMSO. Aliquots of 1 μL of the compounds were added to the wells and pre-incubated with 20 μL hGal-3 per well for 30 minutes Then 20 μL B-ASF were added and incubated for another 1 hour. To detect the signal, 5 μL (final conc. of 1.0 nM) terbium labelled Anti-His antibody was added and incubated for 30 min followed by adding 5 μL (final conc. of 20 nM) Streptavidin d2 and incubation for another 1 hour. The assay signal was detected using HTRF screen protocol (Excitation wavelength=340 nm, emission wavelength=615 nm/665 nm) on Envision 2104 Multilabel Reader. Data analysed using Toolset and Curve Master. Results are reported in the experimental section (IC50 in μM).
(Time-resolved FRET reads energy transfer from a long-lived donor to a nearby acceptor.)

[1] abbreviates: Examples 26 to 29 and 66 to 68, HTRF, 15 nM hGal-3, 15 nM B-ASF.
Where [2] appears, read: text of Examples 1 to 4, HTRF, 15 nM hGal-3, 15 nM B-ASF.

One may read the IC50 as the concentration that inhibits the measured activity by half.

Sequence of His-tagged recombinant human Gal-3 (hGal-3) (P17931 whole entry): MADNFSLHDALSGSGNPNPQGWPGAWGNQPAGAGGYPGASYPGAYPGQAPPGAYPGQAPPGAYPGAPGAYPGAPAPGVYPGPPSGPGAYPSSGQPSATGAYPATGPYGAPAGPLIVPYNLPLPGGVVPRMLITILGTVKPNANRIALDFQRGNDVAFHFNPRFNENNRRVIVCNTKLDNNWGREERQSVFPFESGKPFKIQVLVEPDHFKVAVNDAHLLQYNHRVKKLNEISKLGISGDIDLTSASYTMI

Consider `Cn1nc([C@@H]2O[C@H](CO)[C@H](O)[C@H](n3cc(-c4ccc(Br)c(F)c4F)nn3)[C@H]2O)n(-c2cc(Cl)ccc2C(F)(F)F)c1=S` [Example 66, 5-((2S,3R,4R,5R,6R)-4-(4-(4-bromo-2,3-difluorophenyl)-1H-1,2,3-triazol-1-yl)-3,5-dihydroxy-6-(hydroxymethyl)tetrahydro-2H-pyran-2-yl)-4-(5-chloro-2-(trifluoromethyl)phenyl)-2-methyl-2,4-dihydro-3H-1,2,4-triazole-3-thione], for which the half-inhibitory concentration (IC50) under setting [1] came to 750 nM.
As to `OC[C@H]1O[C@@H](c2nncn2-c2cc(Cl)ccc2C(F)(F)F)[C@H](OCC(F)(F)F)[C@@H](n2cc(-c3ccc(Cl)c(F)c3F)nn2)[C@H]1O` [Example 60], the IC50 (table of Examples 30 to 65) is 14 nM.
Take `CO[C@@H]1[C@@H](n2cc(-c3ccc(Br)c(F)c3F)nn2)[C@@H](O)[C@@H](CO)O[C@H]1c1nc(C)nn1-c1ccc2ncsc2c1` [Example 2, (2R,3R,4S,5R,6S)-6-(1-(Benzo[d]thiazol-6-yl)-3-methyl-1H-1,2,4-triazol-5-yl)-4-(4-(4-bromo-2,3-difluorophenyl)-1H-1,2,3-triazol-1-yl)-2-(hydroxymethyl)-5-methoxytetrahydro-2H-pyran-3-ol]: the IC50 under setting [2] was determined as 13 nM.
On to `OC[C@H]1O[C@@H](c2nncn2-c2cc(Cl)ccc2C(F)(F)F)[C@H](O)[C@@H](n2cc(-c3c(F)c(F)c(Br)c(F)c3F)nn2)[C@H]1O` [Example 37], for which the IC50 (table of Examples 30 to 65) was 5.7 nM.
Regarding `OC[C@H]1O[C@@H](c2nncn2-c2ccc3ncsc3c2)[C@H](OCC(F)F)[C@@H](n2cc(-c3ccc(Br)c(F)c3F)nn2)[C@H]1O` [Example 70], for the setting “table of Examples 69 to 75”, the half-inhibitory concentration (IC50) worked out at 11 nM.
For the compound `Cc1nc([C@@H]2O[C@H](CO)[C@H](O)[C@H](n3cc(-c4ccc(Br)c(F)c4C)nn3)[C@H]2O)n(-c2cc(Cl)ccc2C(F)(F)F)n1` [Example 16], the IC50 (table of Examples 5 to 25) turned out to be 74 nM.
As for `OC[C@H]1O[C@@H](c2nncn2-c2cc(Cl)ccc2C(F)(F)F)[C@H](O)[C@@H](n2cc(-c3cc(F)c(Cl)c(Cl)c3)nn2)[C@H]1O` [Example 34], where the note is “table of Examples 30 to 65”, the IC50 was 20 nM.
For `COc1c(Cl)ccc(-c2cn([C@H]3[C@@H](O)[C@@H](CO)O[C@@H](c4nc(C)nn4-c4cc(Cl)ccc4C(F)(F)F)[C@@H]3O)nn2)c1F` [Example 14], the half-inhibitory concentration (IC50) (table of Examples 5 to 25) is 137 nM.
Consider `Cc1nc([C@@H]2O[C@H](CO)[C@H](O)[C@H](n3cc(-c4ccc(Cl)c(F)c4Cl)nn3)[C@H]2O)n(-c2cc(Cl)ccc2C(F)(F)F)n1` [Example 11], for which the IC50 (table of Examples 5 to 25) stood at 14 nM.
For the compound `OC[C@H]1O[C@@H](c2nncn2-c2cc(Cl)ccc2C(F)(F)F)[C@H](OCC(F)F)[C@@H](n2cc(-c3ccc(Br)c(F)c3F)nn2)[C@H]1O` [Example 29, (2R,3R,4S,5R,6S)-4-(4-(4-bromo-2,3-difluorophenyl)-1H-1,2,3-triazol-1-yl)-6-(4-(5-chloro-2-(trifluoromethyl)phenyl)-4H-1,2,4-triazol-3-yl)-5-(2,2-difluoroethoxy)-2-(hydroxymethyl)tetrahydro-2H-pyran-3-ol], the concentration for half-maximal inhibition (IC50) under setting [1] turned out to be 11 nM.
Turning to `OC[C@H]1O[C@@H](c2n[nH]c(=S)n2-c2cc(Cl)ccc2C(F)(F)F)[C@H](O)[C@@H](n2cc(-c3ccc(Br)c(F)c3F)nn2)[C@H]1O` (single isomer, unassigned) [Example 27], under setting [1], the IC50 turned out to be 76 nM.
On to `CO[C@@H]1[C@@H](n2cc(-c3ccc(Cl)c(F)c3F)nn2)[C@@H](O)[C@@H](CO)O[C@H]1c1nncn1-c1cc(Cl)ccc1OC(F)(F)F` [Example 56], for which the IC50 (table of Examples 30 to 65) stood at 11 nM.
In the case of `Cc1nc([C@@H]2O[C@H](CO)[C@H](O)[C@H](n3cc(-c4ccc(Cl)c(C)c4F)nn3)[C@H]2O)n(-c2cc(Cl)ccc2C(F)(F)F)n1` [Example 17], for the setting “table of Examples 5 to 25”, the IC50 was determined as 18 nM.
Consider `COc1cc(-c2cn([C@H]3[C@@H](O)[C@@H](CO)O[C@@H](c4nc(C)nn4-c4cc(Cl)ccc4C(F)(F)F)[C@@H]3O)nn2)cc(F)c1Br` [Example 19], for which the 50% inhibitory concentration (IC50) (table of Examples 5 to 25) is 23 nM.
With `CO[C@@H]1[C@@H](n2cc(-c3ccc(Cl)c(F)c3F)nn2)[C@@H](O)[C@@H](CO)O[C@H]1c1nc(C)nn1-c1ccc2ncsc2c1` [Example 21], the IC50 (table of Examples 5 to 25) was found to be 10 nM.
For `CNC(=O)CO[C@@H]1[C@@H](n2cc(-c3cc(F)c(Cl)c(F)c3)nn2)[C@@H](O)[C@@H](CO)O[C@H]1c1nc(C)nn1-c1cc(Cl)ccc1C(F)(F)F` [Example 4, 2-(((2S,3R,4S,5R,6R)-2-(1-(5-chloro-2-(trifluoromethyl)phenyl)-3-methyl-1H-1,2,4-triazol-5-yl)-4-(4-(4-chloro-3,5-difluorophenyl)-1H-1,2,3-triazol-1-yl)-5-hydroxy-6-(hydroxymethyl)tetrahydro-2H-pyran-3-yl)oxy)-N-methylacetamide], the half-inhibitory concentration (IC50) under setting [2] amounted to 23 nM.
As to `OC[C@H]1O[C@@H](c2nncn2-c2cc(Cl)ccc2C(F)(F)F)[C@H](O)[C@@H](n2cc(-c3ccc(Cl)c(F)c3F)nn2)[C@H]1O` [Example 52], for the setting “table of Examples 30 to 65”, the IC50 was 9.7 nM.
Turning to `COc1cc(-c2cn([C@H]3[C@@H](O)[C@@H](CO)O[C@@H](c4nc(C)nn4-c4cc(Cl)ccc4C(F)(F)F)[C@@H]3O)nn2)cc2ccccc12` [Example 18], under “table of Examples 5 to 25”, the IC50 came to 1330 nM.
Regarding `COc1cc(-c2cn([C@H]3[C@@H](O)[C@@H](CO)O[C@@H](c4nc(C)nn4-c4cc(Cl)ccc4C(F)(F)F)[C@@H]3O)nn2)cc(F)c1Cl` [Example 3, (2S,3R,4R,5R,6R)-2-(1-(5-Chloro-2-(trifluoromethyl)phenyl)-3-methyl-1H-1,2,4-triazol-5-yl)-4-(4-(4-chloro-3-fluoro-5-methoxyphenyl)-1H-1,2,3-triazol-1-yl)-6-(hydroxymethyl)tetrahydro-2H-pyran-3,5-diol], the 50% inhibitory concentration (IC50) under setting [2] was 14 nM.
Take `CO[C@@H]1[C@@H](n2cc(-c3c(F)c(F)c(Br)c(F)c3F)nn2)[C@@H](O)[C@@H](CO)O[C@H]1c1nncn1-c1cc(Cl)ccc1OC(F)(F)F` [Example 55]: the 50% inhibitory concentration (IC50) (table of Examples 30 to 65) stood at 11 nM.
In the case of `Cn1nc([C@@H]2O[C@H](CO)[C@H](O)[C@H](n3cc(-c4ccc(Br)c(F)c4F)nn3)[C@H]2O)n(-c2cc(Cl)ccc2C(F)(F)F)c1=S` [Example 67, 5-((2S,3R,4R,5R,6R)-4-(4-(4-bromo-2,3-difluorophenyl)-1H-1,2,3-triazol-1-yl)-3,5-dihydroxy-6-(hydroxymethyl)tetrahydro-2H-pyran-2-yl)-4-(5-chloro-2-(trifluoromethyl)phenyl)-2-methyl-2,4-dihydro-3H-1,2,4-triazole-3-thione], the IC50 under setting [1] came out at 9.3 nM.
On to `OC[C@H]1O[C@@H](c2nncn2-c2cc(Cl)ccc2OC(F)(F)F)[C@H](O)[C@@H](n2cc(-c3c(F)c(F)c(Br)c(F)c3F)nn2)[C@H]1O` [Example 47], for which the 50% inhibitory concentration (IC50) (table of Examples 30 to 65) was 14 nM.
For `Cc1nc([C@@H]2O[C@H](CO)[C@H](O)[C@H](n3cc(-c4ccc(Cl)c(F)c4F)nn3)[C@H]2O)n(-c2cc(Cl)cnc2C(F)(F)F)n1` [Example 22], the half-maximal inhibitory concentration (IC50) (table of Examples 5 to 25) is 55 nM.
In the case of `OC[C@H]1O[C@@H](c2nncn2-c2ccc3ncsc3c2)[C@H](OCC(F)F)[C@@H](n2cc(-c3cc(F)c(Br)c(F)c3)nn2)[C@H]1O` [Example 68, (2R,3R,4S,5R,6S)-6-(4-(benzo[d]thiazol-6-yl)-4H-1,2,4-triazol-3-yl)-4-(4-(4-bromo-3,5-difluorophenyl)-1H-1,2,3-triazol-1-yl)-5-(2,2-difluoroethoxy)-2-(hydroxymethyl)tetrahydro-2H-pyran-3-ol], under setting [1], the IC50 was determined as 25 nM.
Turning to `OC[C@H]1O[C@@H](c2nncn2-c2cc(Cl)ccc2C(F)(F)F)[C@H](O)[C@@H](n2cc(-c3ccc(Br)c(F)c3F)nn2)[C@H]1O` [Example 26, (2S,3R,4R,5R,6R)-4-(4-(4-bromo-2,3-difluorophenyl)-1H-1,2,3-triazol-1-yl)-2-(4-(5-chloro-2-(trifluoromethyl)phenyl)-4H-1,2,4-triazol-3-yl)-6-(hydroxymethyl)tetrahydro-2H-pyran-3,5-diol], the half-inhibitory concentration (IC50) under setting [1] amounted to 10 nM.
On to `OC[C@H]1O[C@@H](c2nncn2-c2cc(Cl)cc3cccnc23)[C@H](OCC(F)F)[C@@H](n2cc(-c3cc(F)c(Br)c(F)c3)nn2)[C@H]1O` [Example 69], for which, where the note is “table of Examples 69 to 75”, the IC50 was 130 nM.
As to `OC[C@H]1O[C@@H](c2nncn2-c2cc(Cl)ccc2OC(F)(F)F)[C@H](O)[C@@H](n2cc(-c3ccc(Br)c(F)c3F)nn2)[C@H]1O` [Example 38], the IC50 (table of Examples 30 to 65) stood at 11 nM.
Take `Cc1nc([C@@H]2O[C@H](CO)[C@H](O)[C@H](n3cc(-c4ccc(Br)c(Cl)c4F)nn3)[C@H]2O)n(-c2cc(Cl)ccc2C(F)(F)F)n1` [Example 15]: the concentration for half-maximal inhibition (IC50) (table of Examples 5 to 25) is 96 nM.
Regarding `Cc1nc([C@@H]2O[C@H](CO)[C@H](O)[C@H](n3cc(-c4ccc(C#N)c(F)c4F)nn3)[C@H]2O)n(-c2cc(Cl)ccc2C(F)(F)F)n1` [Example 13], for the setting “table of Examples 5 to 25”, the concentration for half-maximal inhibition (IC50) came out at 19 nM.
Turning to `Cc1nc([C@@H]2O[C@H](CO)[C@H](O)[C@H](n3cc(-c4ccc(Br)c(F)c4F)nn3)[C@H]2O)n(-c2cc(Cl)ncc2C(F)(F)F)n1` [Example 9], the IC50 (table of Examples 5 to 25) was found to be 12 nM.
